{"source": "patent US12098148B2", "about": "“Therapeutic compounds” (C4X Discovery Limited, priority 2018, dated 2024)", "key": {"[1]": {"tested_on": "NQO1 mRNA in BEAS-2B cells", "assay": "Beas2B NQO1 mRNA cell based assay", "design": "species or system human", "conditions": "24 h compound treatment, increase in NQO1 mRNA vs vehicle (0.1% DMSO), read-out: EC50", "method": "Beas2B NQO1 mRNA Cell Based Assay\nThe up regulation of the NRF2 mediated gene NAD(P)H:quinone acceptor oxidoreductase 1 (NQO1) was measured using the following assay method: BEAS-2B cells (ATCC CRL-9609) were plated in 96-well clear plates at 20,000 cells/well in 75 μL of cell culture media and incubated overnight (37° C., 5% CO2). On day 2, 25 μL of compound or controls were added to the cells for 24 h. On day 3, the medium was aspirated from the plate and the Cells-to-CT™ 1-Step TaqMan® Kit (Ambion A25603) was used to perform expression analysis directly from cultured cells without RNA purification according to the manufacturer's instructions.\nBriefly, cells were washed with ice cold PBS and 22.5 μL of room-temperature DNase/Lysis solution was added to the cells and incubated at room temperature for 5 minutes. To stop the reaction, 2.25 μL of stop solution was added to the cell lysate. The samples were diluted 1:5 using nuclease free water and 2.5 μL transferred into the PCR plate. Real-time PCR was performed using the C-1000 Thermal Cycler (Bio-Rad) using human beta actin as the internal control. The cDNA was amplified with a specific primer for NQO1 using the 1-step RT-PCR master mix (Ambion Cells-to-CT™ 1-Step TaqMan® Kit A25603). The primers/probes sets that were used for amplification of cDNA were obtained from TaqMan Gene Expression Assays (Applied Biosystems). The comparative CT (ΔΔCT) relative quantification method was used to calculate the relative mRNA level of the target gene NQO1 as described in the Applied Biosystems Chemistry Guide."}, "[2]": {"target": "human KEAP1 (N-term, residues 321-609) (Homo sapiens, UniProt Q14145)", "sequence (Q14145 321-609)": "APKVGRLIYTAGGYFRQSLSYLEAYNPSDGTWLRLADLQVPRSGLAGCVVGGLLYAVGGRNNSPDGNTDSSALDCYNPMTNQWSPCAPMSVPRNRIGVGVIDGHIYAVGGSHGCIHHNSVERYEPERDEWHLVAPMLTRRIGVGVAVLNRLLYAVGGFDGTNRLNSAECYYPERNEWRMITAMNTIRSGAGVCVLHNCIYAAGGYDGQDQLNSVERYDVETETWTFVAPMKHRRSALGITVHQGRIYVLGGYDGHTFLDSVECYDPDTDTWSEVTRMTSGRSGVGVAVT", "assay": "biochemical"}}, "note": "Where two headings read alike, the source gives them in different places.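 Wherever IC50 is given: fluorescence polarization competition assay of Kelch domain binding to NRF2, 12-point 1:3 dilution series from 10 µM, read after 1 h at room temperature, floor 10 nM.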"}
{"smiles": "CC(Oc1ccc(Br)c2c1[C@@H](CN1Cc3ccccc3C1=O)N(C(=O)[C@@H]1CCCC[C@@H]1C(=O)O)CC2)c1cn(C(C)C)nn1", "note": "(single isomer, unassigned) [Example 46]", "values": [{"measurement": "EC50", "setting": "[1]; Homo sapiens, BEAS-2B, 24 h", "result": 60, "unit": "nM"}, {"measurement": "IC50", "setting": "[2]", "result": 37, "unit": "nM"}]}
{"smiles": "CC(Oc1ccc(Br)c2c1[C@@H](CN1Cc3ccccc3C1=O)N(C(=O)[C@@H]1CCCC[C@@H]1C(=O)O)CC2)c1cn(C(C)C)nn1", "note": "(single isomer, unassigned) [Example 47]", "values": [{"measurement": "EC50", "setting": "[1]", "result": 76, "unit": "nM"}, {"measurement": "IC50", "setting": "[2]", "result": 68, "unit": "nM"}]}
{"smiles": "CC1CCN(C[C@@H]2c3c(OCc4cn(C(C)C)nn4)ccc(Br)c3CCN2C(=O)[C@@H]2CCCC[C@@H]2C(=O)O)C1=O", "note": "(single isomer, unassigned) [Example 73]", "values": [{"measurement": "EC50", "setting": "[1]", "result": 130, "unit": "nM"}, {"measurement": "IC50", "setting": "[2]", "result": 16, "unit": "nM"}]}
{"smiles": "CC1CCN(C[C@@H]2c3c(OCc4cn(C(C)C)nn4)ccc(Br)c3CCN2C(=O)[C@@H]2CCCC[C@@H]2C(=O)O)C1=O", "note": "(single isomer, unassigned) [Example 74]", "values": [{"measurement": "EC50", "setting": "[1]", "result": 22, "unit": "nM"}, {"measurement": "IC50", "setting": "[2]", "result": 6.8, "unit": "nM"}]}
{"smiles": "Cn1nnc(COc2ccc(Cl)c3c2[C@@H](CN2CC(C(F)(F)F)CC2=O)N(C(=O)[C@@H]2CCCC[C@]2(C)C(=O)O)CC3)c1C(F)F", "note": "(single isomer, unassigned) [Example 212]", "values": [{"measurement": "EC50", "setting": "[1]; Homo sapiens, BEAS-2B, 24 h", "result": 1.9, "unit": "nM"}, {"measurement": "IC50", "setting": "[2]", "result": 5.7, "unit": "nM"}]}
{"smiles": "Cn1nnc(COc2ccc(Cl)c3c2[C@@H](CN2CC(C(F)(F)F)CC2=O)N(C(=O)[C@@H]2CCCC[C@]2(C)C(=O)O)CC3)c1C(F)F", "note": "(single isomer, unassigned) [Example 213]", "values": [{"measurement": "EC50", "setting": "[1]", "result": 2.2, "unit": "nM"}, {"measurement": "IC50", "setting": "[2]", "result": 5.2, "unit": "nM"}]}
{"smiles": "Cn1nnc2c1CC(Oc1ccc(Cl)c3c1[C@@H](CN1CC4(CC4)CC1=O)N(C(=O)[C@@H]1CCCC[C@]1(C)C(=O)O)CC3)C2", "note": "(single isomer, unassigned; isomer 1) [Example 215]", "values": [{"measurement": "EC50", "setting": "[1]", "result": 550, "unit": "nM"}, {"measurement": "IC50", "setting": "[2]", "result": 71, "unit": "nM"}]}
{"smiles": "Cn1nnc2c1CC(Oc1ccc(Cl)c3c1[C@@H](CN1CC4(CC4)CC1=O)N(C(=O)[C@@H]1CCCC[C@]1(C)C(=O)O)CC3)C2", "note": "(single isomer, unassigned; isomer 2) [Example 216]", "values": [{"measurement": "EC50", "setting": "[1]", "result": 110, "unit": "nM"}, {"measurement": "IC50", "setting": "[2]", "result": 6.4, "unit": "nM"}]}
{"smiles": "Cc1cc(C(=O)NCCOc2cccc3c2[C@@H](CN2C(=O)c4ccccc4C2=O)N(C(=O)[C@@H]2CCCC[C@@H]2C(=O)O)CC3)no1", "note": "[Example 1, (1S,2R)-2-((S)-1-((1,3-Dioxoisoindolin-2-yl)methyl)-8-(2-(5-methylisoxazole-3-carboxamido)ethoxy)-1,2,3,4-tetrahydroisoquinoline-2-carbonyl)cyclohexanecarboxylic acid]", "values": [{"measurement": "EC50", "setting": "[1]; Homo sapiens, BEAS-2B, 24 h", "result": 850, "unit": "nM"}, {"measurement": "IC50", "setting": "[2]", "result": 12, "unit": "nM"}]}
{"smiles": "O=C(NCCOc1cccc2c1[C@@H](CN1C(=O)c3ccccc3C1=O)N(C(=O)[C@@H]1CCCC[C@@H]1C(=O)O)CC2)c1nc2ccccc2o1", "note": "[Example 2, (1S,2R)-2-((S)-8-(2-(Benzo[d]oxazole-2-carboxamido)ethoxy)-1-((1,3-dioxoisoindolin-2-yl)methyl)-1,2,3,4-tetrahydroisoquinoline-2-carbonyl)cyclohexane-1-carboxylic acid]", "values": [{"measurement": "EC50", "setting": "[1]; Homo sapiens, BEAS-2B, 24 h", "result": 150, "unit": "nM"}, {"measurement": "IC50", "setting": "[2]", "result": 12, "unit": "nM"}]}
{"smiles": "CC(=O)N1CC[C@H](Oc2cccc3c2[C@@H](CN2C(=O)c4ccccc4C2=O)N(C(=O)[C@@H]2CCCC[C@@H]2C(=O)O)CC3)C1", "note": "[Example 3, (1S,2R)-2-((S)-8-(((S)-1-Acetylpyrrolidin-3-yl)oxy)-1-((1,3-dioxoiso-indolin-2-yl)methyl)-1,2,3,4-tetrahydroisoquinoline-2-carbonyl)cyclohexane-1-carboxylic acid]", "values": [{"measurement": "EC50", "setting": "[1]; Homo sapiens, BEAS-2B, 24 h", "result": 120, "unit": "nM"}, {"measurement": "IC50", "setting": "[2]", "result": 5.6, "unit": "nM"}]}
{"smiles": "Cc1cc(C(=O)N2CC[C@H](Oc3cccc4c3[C@@H](CN3C(=O)c5ccccc5C3=O)N(C(=O)[C@@H]3CCCC[C@@H]3C(=O)O)CC4)C2)no1", "note": "[Example 4, (1S,2R)-2-((S)-1-((1,3-Dioxoisoindolin-2-yl)methyl)-8-(((S)-1-(5-methylisoxazole-3-carbonyl)pyrrolidin-3-yl)oxy)-1,2,3,4-tetrahydroisoquinoline-2-carbonyl)cyclohexane-1-carboxylic acid]", "values": [{"measurement": "EC50", "setting": "[1]; Homo sapiens, BEAS-2B, 24 h", "result": 13, "unit": "nM"}, {"measurement": "IC50", "setting": "[2]", "result": 9, "unit": "nM"}]}
{"smiles": "O=C(O)[C@H]1CCCC[C@H]1C(=O)N1CCc2c(Br)ccc(O[C@H]3CCN(C(=O)c4cncs4)C3)c2[C@H]1CN1C(=O)c2ccccc2C1=O", "note": "[Example 5, (1S,2R)-2-((S)-5-bromo-1-((1,3-dioxoisoindolin-2-yl)methyl)-8-(((S)-1-(thiazole-5-carbonyl)pyrrolidin-3-yl)oxy)-1,2,3,4-tetrahydroisoquinoline-2-carbonyl)cyclohexane-1-carboxylic acid]", "values": [{"measurement": "EC50", "setting": "[1]; Homo sapiens, BEAS-2B, 24 h", "result": 2.5, "unit": "nM"}, {"measurement": "IC50", "setting": "[2]", "result": 6.1, "unit": "nM"}]}
{"smiles": "O=C(O)[C@H]1CCCC[C@H]1C(=O)N1CCc2cccc(O[C@H]3CCN(C(=O)c4cncs4)C3)c2[C@H]1CN1C(=O)c2ccccc2C1=O", "note": "[Example 6, (1S,2R)-2-((S)-1-((1,3-dioxoisoindolin-2-yl)methyl)-8-(((S)-1-(thiazole-5-carbonyl)pyrrolidin-3-yl)oxy)-1,2,3,4-tetrahydroisoquinoline-2-carbonyl)cyclohexane-1-carboxylic acid]", "values": [{"measurement": "EC50", "setting": "[1]; Homo sapiens, BEAS-2B, 24 h", "result": 78, "unit": "nM"}, {"measurement": "IC50", "setting": "[2]", "result": 5.6, "unit": "nM"}]}
{"smiles": "Cc1ncc(C(=O)N2CC[C@H](Oc3cccc4c3[C@@H](CN3C(=O)c5ccccc5C3=O)N(C(=O)[C@@H]3CCCC[C@@H]3C(=O)O)CC4)C2)s1", "note": "[Example 7, (1S,2R)-2-((S)-1-((1,3-dioxoisoindolin-2-yl)methyl)-8-(((S)-1-(2-methylthiazole-5-carbonyl)pyrrolidin-3-yl)oxy)-1,2,3,4-tetrahydroisoquinoline-2-carbonyl)cyclohexane-1-carboxylic acid]", "values": [{"measurement": "EC50", "setting": "[1]; Homo sapiens, BEAS-2B, 24 h", "result": 48, "unit": "nM"}, {"measurement": "IC50", "setting": "[2]", "result": 6.2, "unit": "nM"}]}
{"smiles": "O=C(O)[C@H]1CCCC[C@H]1C(=O)N1CCc2c(Cl)ccc(OCc3noc4ccccc34)c2[C@H]1CN1CCCC1=O", "note": "[Example 72, (1S,2R)-2-((S)-8-(Benzo[d]isoxazol-3-ylmethoxy)-5-chloro-1-((2-oxopyrrolidin-1-yl)methyl)-1,2,3,4-tetrahydroisoquinoline-2-carbonyl)cyclohexane-1-carboxylic acid]", "values": [{"measurement": "EC50", "setting": "[1]; Homo sapiens, BEAS-2B, 24 h", "result": 2.8, "unit": "nM"}]}
{"smiles": "O=C1CCCN1C[C@@H]1c2c(OCc3noc4ccccc34)ccc(Cl)c2CCN1C(=O)[C@@H]1CCCC[C@@H]1c1nn[nH]n1", "note": "[Example 81, 1-(((S)-2-((1R,2S)-2-(2H-tetrazol-5-yl)cyclohexane-1-carbonyl)-8-(benzo[d]isoxazol-3-ylmethoxy)-5-chloro-1,2,3,4-tetrahydroisoquinolin-1-yl)methyl)pyrrolidin-2-one]", "values": [{"measurement": "EC50", "setting": "[1]; Homo sapiens, BEAS-2B, 24 h", "result": 260, "unit": "nM"}]}
{"smiles": "C[C@@H]1CC(=O)N(C[C@@H]2c3c(OCc4nnn(C)c4C(F)(F)F)ccc(Cl)c3CCN2C(=O)[C@H]2CCCC[C@]2(C)C(=O)O)C1", "note": "[Example 133, (1S,2S)-2-((S)-5-chloro-1-(((R)-4-methyl-2-oxopyrrolidin-1-yl)methyl)-8((1-methyl-5-(trifluoromethyl)-1H-1,2,3-triazol-4-yl)methoxy)-1,2,3,4-tetrahydroisoquinoline-2-carbonyl)-1-methylcyclohexane-1-carboxylic acid]", "values": [{"measurement": "EC50", "setting": "[1]; Homo sapiens, BEAS-2B, 24 h", "result": 20, "unit": "nM"}]}
{"smiles": "C[C@]1(C(=O)O)CCCC[C@H]1C(=O)N1CCc2c(Cl)cc(F)c(OCc3nnn4c3CCCC4)c2[C@H]1CN1CC2(CC2)CC1=O", "note": "[Example 144, (1S,2R)-2-((S)-5-chloro-7-fluoro-1-((6-oxo-5-azaspiro[2.4]heptan-5-yl)methyl)-8-((4,5,6,7-tetrahydro-[1,2,3]triazolo[1,5-a]pyridin-3-yl)methoxy)-1,2,3,4-tetrahydroisoquinoline-2-carbonyl)-1-methylcyclohexane-1-carboxylic acid]", "values": [{"measurement": "EC50", "setting": "[1]; Homo sapiens, BEAS-2B, 24 h", "result": 0.022, "unit": "nM"}]}
{"smiles": "Cn1nnc(COc2ccc(Cl)c3c2[C@@H](CN2CCCC2=O)N(C(=O)[C@@H]2CCCC[C@]2(C)c2nn[nH]n2)CC3)c1C(F)F", "note": "[Example 151, 1-(((S)-5-chloro-8-((5-(difluoromethyl)-1-methyl-1H-1,2,3-triazol-4-yl)methoxy)-2-((1R,2S)-2-methyl-2-(2H-tetrazol-5-yl)cyclohexane-1-carbonyl)-1,2,3,4-tetrahydroisoquinolin-1-yl)methyl)pyrrolidin-2-one]", "values": [{"measurement": "EC50", "setting": "[1]; Homo sapiens, BEAS-2B, 24 h", "result": 16, "unit": "nM"}]}
{"smiles": "Cn1nnc(COc2ccc(Cl)c3c2[C@@H](CN2CC4(CC4)CC2=O)N(C(=O)[C@@H]2CCCC[C@@H]2C(=O)O)CC3)c1C(F)F", "note": "[Example 197, (1S,2R)-2-((S)-5-Chloro-8-((5-(difluoromethyl)-1-methyl-1H-1,2,3-triazol-4-yl)methoxy)-1-((6-oxo-5-azaspiro [2.4]heptan-5-yl)methyl)-1,2,3,4-tetrahydroisoquinoline-2-carbonyl) cyclohexane-1-carboxylic acid]", "values": [{"measurement": "EC50", "setting": "[1]; Homo sapiens, BEAS-2B, 24 h", "result": 0.51, "unit": "nM"}]}
{"smiles": "Cn1nnc(COc2ccc(Cl)c3c2[C@@H](CN2CC4(CC4)CC2=O)N(C(=O)[C@@H]2CCCC[C@@H]2c2nnn[nH]2)CC3)c1C(F)F", "note": "[Example 202, 5-(((S)-2-((1R,2S)-2-(1H-tetrazol-5-yl)cyclohexane-1-carbonyl)-5-chloro-8-((5-(difluoromethyl)-1-methyl-1H-1,2,3-triazol-4-yl)methoxy)-1,2,3,4-tetrahydroisoquinolin-1-yl)methyl)-5-azaspiro[2.4]heptan-6-one]", "values": [{"measurement": "EC50", "setting": "[1]; Homo sapiens, BEAS-2B, 24 h", "result": 79, "unit": "nM"}]}
